The source made the active and inactive calls.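 How the source made its calls: active means growth-inhibition EC50 no more than tenfold above the top tested dose; inconclusive means flat fit between 30% and 70% inhibition, or unreliable fit; inactive means EC50 more than tenfold above the top tested dose.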
Test system: E. coli NEB5alpha growth, BacTiter-Glo luminescence, 4 h
Test: Escherichia coli growth inhibition, dose response, counter-screen for MEX-5/POS-1 RNA-binding inhibitor project, luminescence, NEB5alpha (AID 1959);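 further: pUC19-transformed ampicillin-resistant cells grown in LB with ampicillin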

Q: How did the EC50 turn out when `c1coc(-c2nc3ccccc3nc2-c2ccco2)c1` was run?
A: > 11 µM (inactive)

Q: For `COc1ccccc1N1C(=O)C(Cl)=C(Nc2ccccc2O)C1=O`, which EC50 is on record?
A: > 11 µM (inactive)

Q: For `CCN(CC)c1ccc(/C=C(/C#N)c2nc3ccccc3[nH]2)c(OC(C)C)c1`, which EC50 is on record?
A: > 11 µM (inactive)

Q: Which EC50 does the source give for `N=c1c(S(=O)(=O)c2ccccc2)cc2c(=O)n3ccccc3nc2n1Cc1cccnc1` here?
A: > 11 µM (inactive)

Q: With `CN1C(=O)C(=Cc2cn(CC(=O)N3CCCC3)c3ccccc23)C(=O)N(C)C1=O` as the molecule, how does the EC50 read?
A: > 11 µM (inactive)

Q: Which EC50 does the source give for `O=C1CSC(=S)N1N1C(=O)c2cccc([N+](=O)[O-])c2C1=O` here?
A: > 11 µM (inactive)

Q: For `CCOC(=O)c1cc(-c2ccccc2)sc1NC(=S)Nc1cc(C)ccn1`, which EC50 is on record?
A: > 11 µM (inactive)

Q: How did the EC50 turn out when `Cc1cccc2cc3c(N)c(C(=O)Nc4ccc(N5CCOCC5)cc4)sc3nc12` was run?
A: > 11 µM (inactive)

Q: `CC(=O)N1CCc2c(sc(NC(=O)C3CCCN3S(=O)(=O)c3cccs3)c2C(N)=O)C1` (centres undefined) was tested. Which EC50 did it give?
A: > 11 µM (inactive)

Q: How did the EC50 turn out when `Cc1ccc(C(=O)CSc2nc3c([nH]2)c(=O)n(C)c(=O)n3C)cc1` was run?
A: > 11 µM (inactive)

Q: Which EC50 does the source give for `CCCCN(C(=O)c1ccc([N+](=O)[O-])o1)c1c(N)n(CC(C)C)c(=O)[nH]c1=O` here?
A: > 11 µM (inactive)

Q: How did the EC50 turn out when `CN(C)CCCN=Cc1c(O)n(CCc2ccc(F)cc2)c(=O)[nH]c1=O` was run?
A: > 11 µM (inactive)

Q: Which EC50 does the source give for `COc1ccc(/C=C/c2ccc3c(Br)ccc(O)c3n2)cc1` here?
A: > 11 µM (inactive)

Q: How did the EC50 turn out when `CC(=O)N=Cc1c(C)c(C#N)c(=O)n(C)c1O` was run?
A: > 11 µM (inactive)

Q: With `Cc1nc2ccc(N3CCN(C)CC3)cc2nc1C` as the molecule, how does the EC50 read?
A: > 11 µM (inactive)

Q: Which EC50 does the source give for `Cc1ccc(NC(=O)CN2C(=O)S/C(=C\c3cc(C)n(-c4cccc(C(=O)O)c4)c3C)C2=O)cc1` here?
A: > 11 µM (inactive)

Q: How did the EC50 turn out when `COc1cccc(N2C(=O)NC(=O)/C(=C/c3ccc4c(c3)Cc3ccccc3-4)C2=O)c1` was run?
A: > 11 µM (inactive)

Q: `CCOC(=O)Cn1c(=O)c(-c2cc(Br)ccc2N)nc2ccccc21` was tested. Which EC50 did it give?
A: > 11 µM (inactive)

Q: Which EC50 does the source give for `COC(=O)c1cc2n3ccccc3c(C)c(-c3ccccc3)c-2c1C(=O)OC` here?
A: > 11 µM (inactive)

Q: How did the EC50 turn out when `CC1=CC(C)(C)N2C(=O)C3(C(C#N)=C(N)OC4=C3C(=O)CCC4)c3c(C)c(C)cc1c32` (centres undefined) was run?
A: > 11 µM (inactive)

Q: With `CNC(=O)NC(=O)COC(=O)c1ccc(-n2c(C)ccc2C)cc1` as the molecule, how does the EC50 read?
A: > 11 µM (inactive)

Q: How did the EC50 turn out when `Cc1cc(C)cc(N2C(=O)/C(=C\c3ccc(N4CCN(C)CC4)o3)C(=O)NC2=S)c1` was run?
A: > 11 µM (inactive)

Q: With `Nc1ccc2c(c1)C/C(=C/c1ccco1)C2=O` as the molecule, how does the EC50 read?
A: > 11 µM (inactive)

Q: For `Cc1nc2cc(N)ccc2n1C1CCCCC1`, which EC50 is on record?
A: > 11 µM (inactive)

Q: For `COc1cccc(C(=O)NCC2CCN(c3ccc(S(=O)(=O)N4CCOCC4)cc3)CC2)c1`, which EC50 is on record?
A: > 11 µM (inactive)

Q: `Cc1oc(/N=C/c2ccc(O)cc2O)c(C#N)c1C` was tested. Which EC50 did it give?
A: > 11 µM (inactive)

Q: With `CCOc1cc(/C=C2\C(=O)NC(=O)N(CCc3ccc(F)cc3)C2=O)ccc1O` as the molecule, how does the EC50 read?
A: > 11 µM (inactive)

Q: Which EC50 does the source give for `CNc1c(N)n(Cc2ccccc2)c(=O)[nH]c1=O` here?
A: > 11 µM (inactive)

Q: With `Cc1cccn2c(=O)c3cc(C(=O)NCc4ccco4)c(=N)n(C(C)C)c3nc12` as the molecule, how does the EC50 read?
A: > 11 µM (inactive)

Q: With `O=C(O)Cn1cc(/C=C2\C(=O)NC(=O)N(c3ccc(F)cc3)C2=O)c2ccccc21` as the molecule, how does the EC50 read?
A: > 11 µM (inactive)

Q: Which EC50 does the source give for `C=CCn1c(=O)/c(=C\c2ccsc2)s/c1=C(/C#N)C(=O)NCCN1CCOCC1` here?
A: > 11 µM (inactive)

Q: For `COc1ccc(N=Cc2c(O)c3ccccc3n2C(C)=O)cc1`, which EC50 is on record?
A: > 11 µM (inactive)

Q: Which EC50 does the source give for `COCc1cc(=O)n2[nH]c(-c3cccs3)cc2n1` here?
A: > 11 µM (inactive)

Q: How did the EC50 turn out when `O=C(/C=C/c1ccc(O)c(O)c1)OC(Cc1ccc(O)c(O)c1)C(=O)O` (centres undefined) was run?
A: > 11 µM (inactive)

Q: For `CC1(C)Cc2c(cnn2-c2cccc(F)c2)C(NC(=O)CSc2ccccn2)C1` (centres undefined), which EC50 is on record?
A: > 11 µM (inactive)

Q: For `CN1C(=O)NC(c2ccccc2[N+](=O)[O-])C2=C1CCCC2=O` (centres undefined), which EC50 is on record?
A: > 11 µM (inactive)

Q: For `Cc1cc2nc3ccc(=[N+](C)C)cc-3sc2cc1N`, which EC50 is on record?
A: > 11 µM (inactive)

Q: Which EC50 does the source give for `CCCCOc1ccc(/C=C2/Sc3ccccc3C2=O)cc1` here?
A: > 11 µM (inactive)

Q: For `Cc1cc(NS(=O)(=O)c2ccc(Nc3nc(-c4sc(N)nc4C)cs3)cc2)no1`, which EC50 is on record?
A: > 11 µM (inactive)

Q: `CCNC(=S)N(C)CCc1cc2c(c(OC)c1C=C1C(=O)N(C)C(=O)N(C)C1=O)OCO2` was tested. Which EC50 did it give?
A: > 11 µM (inactive)

Q: Which EC50 does the source give for `CCOc1ccc(-n2c(O)c(C=Nc3ccc(N(CC)CC)cc3)c(=O)[nH]c2=O)cc1` here?
A: > 11 µM (inactive)

Q: With `C(=N\NC(=Nc1ccccc1)c1ccccn1)/c1ccccn1` as the molecule, how does the EC50 read?
A: > 11 µM (inactive)

Q: How did the EC50 turn out when `CCOC(=O)/C(C#N)=C/c1cc2ccccc2nc1N1CCCCC1` was run?
A: > 11 µM (inactive)

Q: With `Cc1cc(C(=O)O)ccc1-n1c(C)ccc1C` as the molecule, how does the EC50 read?
A: > 11 µM (inactive)

Q: Which EC50 does the source give for `COc1ccc(C(=O)Nc2nc(-c3ccc([N+](=O)[O-])cc3)c(-c3ccccc3)s2)cc1` here?
A: > 11 µM (inactive)

Q: Which EC50 does the source give for `CC(=O)N1CCc2c(sc(NC(=O)C3CCCCC3)c2C(N)=O)C1` here?
A: > 11 µM (inactive)

Q: `CCn1c(C)cc(=S)c2ccccc21` was tested. Which EC50 did it give?
A: > 11 µM (inactive)

Q: For `Nc1nnc(C(=O)c2ccccc2N)s1`, which EC50 is on record?
A: > 11 µM (inactive)

Q: For `CSc1nsc2nc(=O)c(/C=C3\C=Nc4ccccc43)c(N)n12`, which EC50 is on record?
A: > 11 µM (inactive)

Q: How did the EC50 turn out when `COC(=O)CNC(=O)C1Nc2ccc(OC(F)(F)F)cc2C2C=CCC12` (centres undefined) was run?
A: > 11 µM (inactive)

Q: For `CCC1(c2ccccc2)NC(=O)N(CC(=O)NCc2ccc(F)cc2)C1=O` (centres undefined), which EC50 is on record?
A: > 11 µM (inactive)

Q: `C=CCN1C(=O)NC(=O)/C(=C/c2c(CCN(C)C(=O)c3ccccc3)cc3c(c2OC)OCO3)C1=O` was tested. Which EC50 did it give?
A: > 11 µM (inactive)

Q: `Nc1ccc2nc(-c3ccccc3)c(-c3ccccc3)nc2c1` was tested. Which EC50 did it give?
A: > 11 µM (inactive)

Q: Which EC50 does the source give for `Cc1nc(-c2ccc(O)c(O)c2)cs1` here?
A: > 11 µM (inactive)

Q: With `COc1cc(C(c2c(C)[nH][nH]c2=O)c2c(C)[nH][nH]c2=O)cc([N+](=O)[O-])c1O` as the molecule, how does the EC50 read?
A: > 11 µM (inactive)

Q: For `Cc1c(C(=O)O)cccc1-n1c(C)cc(/C=N/Nc2ccc([N+](=O)[O-])cn2)c1C`, which EC50 is on record?
A: > 11 µM (inactive)

Q: How did the EC50 turn out when `Cc1cc(C(F)(F)F)c2c(N)c(C(=O)Nc3cc(C)on3)sc2n1` was run?
A: > 11 µM (inactive)

Q: With `CC(=O)C1=C(c2ccccc2)N(C(C)=O)n2c(C)nnc2S1` as the molecule, how does the EC50 read?
A: > 11 µM (inactive)

Q: `CCOc1ccc2ccccc2c1C1NC(=O)N(C)C(C)=C1C(=O)OCCOC` (centres undefined) was tested. Which EC50 did it give?
A: > 11 µM (inactive)

Q: For `Cc1cc(C=C2C(=O)NC(=O)NC2=O)c(C)n1-c1cccnc1`, which EC50 is on record?
A: > 11 µM (inactive)

Q: How did the EC50 turn out when `CCOC(=O)C1Nc2c(F)cc(C)cc2C2C=CCC12` (centres undefined) was run?
A: > 11 µM (inactive)

Q: `C/C(=N\Nc1ccc(Cl)c(C(=O)O)c1)c1ccc[nH]1` was tested. Which EC50 did it give?
A: > 11 µM (inactive)

Q: `Cc1ccc(-n2c(=O)c(C#N)cc3c(=O)n4ccccc4nc32)cc1C` was tested. Which EC50 did it give?
A: > 11 µM (inactive)

Q: How did the EC50 turn out when `O=C(O)c1ccc2c(c1)C(=O)/C(=C\c1ccco1)C2=O` was run?
A: > 11 µM (inactive)

Q: `CCOc1ccccc1NC(=O)Nc1ccc(OC)nc1` was tested. Which EC50 did it give?
A: > 11 µM (inactive)

Q: For `COc1ccc(OC)c(C2=C/C(=C/c3ccccn3)C(=O)O2)c1`, which EC50 is on record?
A: > 11 µM (inactive)

Q: With `Nc1c(C(=O)c2ccc(Br)s2)oc2ccccc12` as the molecule, how does the EC50 read?
A: > 11 µM (inactive)

Q: For `CN1C(=O)/C(=C\c2ccc(N(C)C)cc2)OC1=S`, which EC50 is on record?
A: > 11 µM (inactive)

Q: With `Cc1cc(N=Cc2c(O)n(-c3ccc4c(c3)OCO4)c(=O)c3ccccc23)ccn1` as the molecule, how does the EC50 read?
A: > 11 µM (inactive)

From PubChem BioAssay AID1959 (Broad Institute, 2009)
